Assay results as given in ChEMBL document CHEMBL1135311, “N-Cycloalkanoyl-L-phenylalanine derivatives as VCAM/VLA-4 antagonists” (Bioorg Med Chem Lett, 2002).

Tests used:
Integrin alpha-4/beta-1 [1] = target: T1, Integrin alpha-4/beta-1 (Homo sapiens, UniProt P05556+P13612); assay: Inhibitory binding concentration determined against VCAM/VLA-4 in Ramos; assay type: protein-complex assay
Integrin alpha-4/beta-1 [2] = target: T1, Integrin alpha-4/beta-1; assay: Inhibitory binding concentration determined against VCAM/VLA-4 in ELISA; assay type: protein-complex assay
Integrin alpha-4/beta-1 [3] = target: T1, Integrin alpha-4/beta-1; assay: Inhibition of Very late antigen 4 (VLA-4) of Ramos cell adhesion to vascular cell adhesion molecule 1 (VCAM-1); assay type: cell-based
Integrin alpha-4/beta-1 [4] = target: T1, Integrin alpha-4/beta-1; assay: Inhibition of Very late antigen 4/vascular cell adhesion molecule 1 interaction in ELISA; assay type: protein-complex assay

T1 sequence (P05556 whole entry): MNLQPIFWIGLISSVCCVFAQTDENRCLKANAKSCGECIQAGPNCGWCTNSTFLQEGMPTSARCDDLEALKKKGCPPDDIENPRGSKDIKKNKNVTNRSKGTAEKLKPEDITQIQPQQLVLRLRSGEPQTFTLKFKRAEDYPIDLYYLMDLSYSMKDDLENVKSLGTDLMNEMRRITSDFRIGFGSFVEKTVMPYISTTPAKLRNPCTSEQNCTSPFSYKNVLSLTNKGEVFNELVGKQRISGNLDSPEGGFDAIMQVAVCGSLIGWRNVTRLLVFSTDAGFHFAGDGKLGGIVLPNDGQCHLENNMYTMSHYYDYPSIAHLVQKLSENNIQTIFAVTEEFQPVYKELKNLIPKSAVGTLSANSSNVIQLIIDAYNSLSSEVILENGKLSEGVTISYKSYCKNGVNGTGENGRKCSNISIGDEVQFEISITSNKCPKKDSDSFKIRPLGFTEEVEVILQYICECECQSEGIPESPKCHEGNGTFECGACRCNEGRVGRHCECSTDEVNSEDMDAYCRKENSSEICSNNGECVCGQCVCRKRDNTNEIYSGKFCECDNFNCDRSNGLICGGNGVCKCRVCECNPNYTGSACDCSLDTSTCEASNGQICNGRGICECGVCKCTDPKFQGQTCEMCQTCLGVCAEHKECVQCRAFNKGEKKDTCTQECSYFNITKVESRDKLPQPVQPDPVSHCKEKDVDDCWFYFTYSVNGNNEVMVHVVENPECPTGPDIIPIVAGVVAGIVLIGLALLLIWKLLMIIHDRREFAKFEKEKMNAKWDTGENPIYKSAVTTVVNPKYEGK
T1 sequence (P13612 whole entry): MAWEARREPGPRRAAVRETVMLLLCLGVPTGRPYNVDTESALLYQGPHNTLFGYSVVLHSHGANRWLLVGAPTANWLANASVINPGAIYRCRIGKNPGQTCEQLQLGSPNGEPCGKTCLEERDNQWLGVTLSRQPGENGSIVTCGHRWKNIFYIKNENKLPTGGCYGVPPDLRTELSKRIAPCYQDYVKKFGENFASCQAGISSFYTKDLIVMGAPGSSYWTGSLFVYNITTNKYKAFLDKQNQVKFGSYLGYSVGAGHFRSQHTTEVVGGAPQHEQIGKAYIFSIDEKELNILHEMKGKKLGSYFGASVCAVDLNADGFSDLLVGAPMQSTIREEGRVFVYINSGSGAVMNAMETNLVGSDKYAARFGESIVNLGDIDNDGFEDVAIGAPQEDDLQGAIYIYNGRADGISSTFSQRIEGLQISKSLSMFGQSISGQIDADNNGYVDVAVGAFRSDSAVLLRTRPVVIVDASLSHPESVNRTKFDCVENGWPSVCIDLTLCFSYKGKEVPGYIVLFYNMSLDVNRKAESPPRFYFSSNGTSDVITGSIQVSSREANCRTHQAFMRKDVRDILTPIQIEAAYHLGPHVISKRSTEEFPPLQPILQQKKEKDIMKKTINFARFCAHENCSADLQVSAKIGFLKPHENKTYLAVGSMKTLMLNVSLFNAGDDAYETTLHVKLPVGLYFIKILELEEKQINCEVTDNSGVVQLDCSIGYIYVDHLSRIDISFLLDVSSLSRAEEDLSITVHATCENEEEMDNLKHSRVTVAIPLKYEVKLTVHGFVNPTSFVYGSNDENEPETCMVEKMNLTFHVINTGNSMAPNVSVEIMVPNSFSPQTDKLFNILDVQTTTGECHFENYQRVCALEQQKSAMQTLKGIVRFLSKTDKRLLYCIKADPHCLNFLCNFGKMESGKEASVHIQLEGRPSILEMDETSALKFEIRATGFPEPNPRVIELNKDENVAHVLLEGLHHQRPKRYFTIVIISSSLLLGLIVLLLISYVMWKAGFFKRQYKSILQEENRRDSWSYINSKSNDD

Row | Structure (SMILES) | IC50 (Integrin alpha-4/beta-1 [1]) [nM] | IC50 (Integrin alpha-4/beta-1 [2]) [nM] | IC50 (Integrin alpha-4/beta-1 [3]) [nM] | IC50 (Integrin alpha-4/beta-1 [4]) [nM]
1 | O=C(NCCC1(C(=O)N[C@@H](Cc2ccc(NC(=O)c3c(Cl)cccc3Cl)cc2)C(=O)O)CCCC1)Nc1ccccc1 | 914 | 5.8 |  | 
2 | CS(=O)(=O)CCCCC1(C(=O)N[C@@H](Cc2ccc(NC(=O)c3c(Cl)cccc3Cl)cc2)C(=O)O)CCC1 |  |  | 6 | 0.1
3 | O=C(Nc1ccc(C[C@H](NC(=O)C2(Cc3ccccc3Cl)CCCC2)C(=O)O)cc1)c1c(Cl)cccc1Cl | 350 |  |  | 
4 | CNC(=O)NCCC1(C(=O)N[C@@H](Cc2ccc(NC(=O)c3c(Cl)cccc3Cl)cc2)C(=O)O)CCCC1 | 11 | 0.1 |  | 
5 | O=C(Nc1ccc(C[C@H](NC(=O)C2(c3ccccc3)CCCC2)C(=O)O)cc1)c1c(Cl)cccc1Cl |  | 1.7 |  | 
6 | CSCCCCC1(C(=O)N[C@@H](Cc2ccc(NC(=O)c3c(Cl)cccc3Cl)cc2)C(=O)O)CCCC1 |  |  |  | 1.1
7 | C=CCCC1(C(=O)N[C@@H](Cc2ccc(NC(=O)c3c(Cl)cccc3Cl)cc2)C(=O)O)CCCC1 | 64 |  |  | 
8 | N#CCC1(C(=O)N[C@@H](Cc2ccc(NC(=O)c3c(Cl)cccc3Cl)cc2)C(=O)O)CCCC1 |  | 1.1 |  | 
9 | Cn1nnnc1-c1cccc(CC2(C(=O)N[C@@H](Cc3ccc(NC(=O)c4c(Cl)cccc4Cl)cc3)C(=O)O)CCCC2)c1 | 100 | 0.4 |  | 
10 | COc1ccc(CC2(C(=O)N[C@@H](Cc3ccc(NC(=O)c4c(Cl)cccc4Cl)cc3)C(=O)O)CCCC2)cc1 | 37 | 0.6 |  | 
11 | [N-]=[N+]=NCCCCC1(C(=O)N[C@@H](Cc2ccc(NC(=O)c3c(Cl)cccc3Cl)cc2)C(=O)O)CCCC1 | 142 | 1.64 |  | 
12 | O=C(Nc1ccc(C[C@H](NC(=O)C2(Cc3ccccc3)CCCC2)C(=O)O)cc1)c1c(Cl)cccc1Cl | 340 | 6.6 |  | 
13 | COCCC1(C(=O)N[C@@H](Cc2ccc(NC(=O)c3c(Cl)cccc3Cl)cc2)C(=O)O)CCC1 | 17 | 0.61 |  | 
14 | NC(=O)NCCC1(C(=O)N[C@@H](Cc2ccc(NC(=O)c3c(Cl)cccc3Cl)cc2)C(=O)O)CCCC1 |  | 0.46 |  | 
15 | COc1cccc(CC2(C(=O)N[C@@H](Cc3ccc(NC(=O)c4c(Cl)cccc4Cl)cc3)C(=O)O)CCCC2)c1 | 170 |  |  | 
16 | C[S+]([O-])CCC1(C(=O)N[C@@H](Cc2ccc(NC(=O)c3c(Cl)cccc3Cl)cc2)C(=O)O)CCCC1 (some centres undefined) |  |  |  | 0.21
17 | CC(=O)CCCC1(C(=O)N[C@@H](Cc2ccc(NC(=O)c3c(Cl)cccc3Cl)cc2)C(=O)O)CCCC1 | 350 | 7.8 |  | 
18 | Cn1nnnc1-c1ccc(CC2(C(=O)N[C@@H](Cc3ccc(NC(=O)c4c(Cl)cccc4Cl)cc3)C(=O)O)CCCCC2)cc1 | 61 | 1.3 |  | 
19 | CS(=O)(=O)CCCC1(C(=O)N[C@@H](Cc2ccc(NC(=O)c3c(Cl)cccc3Cl)cc2)C(=O)O)CCCC1 |  |  | 528 | 1.8
20 | COc1ccc(CC2(C(=O)N[C@@H](Cc3ccc(NC(=O)c4c(Cl)cccc4Cl)cc3)C(=O)O)CCCC2)cc1OC | 95 | 0.8 |  | 
21 | COCC1(C(=O)N[C@@H](Cc2ccc(NC(=O)c3c(Cl)cccc3Cl)cc2)C(=O)O)CCCC1 | 134 | 1 |  | 
22 | N#CCCCCC1(C(=O)N[C@@H](Cc2ccc(NC(=O)c3c(Cl)cccc3Cl)cc2)C(=O)O)CCCC1 |  | 0.52 |  | 
23 | [N-]=[N+]=NCCC1(C(=O)N[C@@H](Cc2ccc(NC(=O)c3c(Cl)cccc3Cl)cc2)C(=O)O)CCCC1 |  | 0.53 |  | 
24 | COCCC1(C(=O)N[C@@H](Cc2ccc(NC(=O)c3c(Cl)cccc3Cl)cc2)C(=O)O)CCCC1 | 12 |  |  | 
25 | Cn1nnnc1-c1ccc(CC2(C(=O)N[C@@H](Cc3ccc(NC(=O)c4c(Cl)cccc4Cl)cc3)C(=O)O)CCCC2)cc1 | 19 |  |  | 
26 | CS(=O)(=O)CCC1(C(=O)N[C@@H](Cc2ccc(NC(=O)c3c(Cl)cccc3Cl)cc2)C(=O)O)CCCC1 |  |  |  | 0.8
27 | CN(C)CCC1(C(=O)N[C@@H](Cc2ccc(NC(=O)c3c(Cl)cccc3Cl)cc2)C(=O)O)CCCC1 | 89 | 3.4 |  | 
28 | CS(=O)(=O)CCCCC1(C(=O)N[C@@H](Cc2ccc(NC(=O)c3c(Cl)cccc3Cl)cc2)C(=O)O)CCCC1 |  |  | 8 | 0.15
29 | COCCCCC1(C(=O)N[C@@H](Cc2ccc(NC(=O)c3c(Cl)cccc3Cl)cc2)C(=O)O)CCCC1 | 29 |  |  | 
